Test system: 817829-284-R-J1-PDC complex spheroids, viability
Assay: Anticancer human tumor 817829-284-R-J1-PDC patient-derived colon adenocarcinoma cell line growth inhibition [CLK]
Settings: for IC50: curve of first compound; for viability, T/C: stronger effect = lower value
In short: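 Multi-cell-type spheroids combined patient-derived tumor cells with HUVEC endothelial cells and human mesenchymal stem cells. Paired agents were dosed in half-log steps down from about clinical Cmax, or from 10 microM where Cmax was unknown.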

[1] = second compound 0.0316 µM, first compound 0.0316 µM
[2] = second compound 0.0316 µM, first compound 0.1 µM
[3] = second compound 0.0316 µM, first compound 0.316 µM
[4] = second compound 0.0316 µM, first compound 1 µM
[5] = second compound 0.0316 µM, first compound 3.16 µM
[6] = second compound 0.0316 µM, first compound 10 µM
[7] = second compound 0.1 µM, first compound 0.0316 µM
[8] = second compound 0.1 µM, first compound 0.1 µM
[9] = second compound 0.1 µM, first compound 0.316 µM
[10] = second compound 0.1 µM, first compound 1 µM
[11] = second compound 0.1 µM, first compound 3.16 µM
[12] = second compound 0.1 µM, first compound 10 µM
[13] = second compound 0.316 µM, first compound 0.0316 µM
[14] = second compound 0.316 µM, first compound 0.1 µM
[15] = second compound 0.316 µM, first compound 0.316 µM
[16] = second compound 0.316 µM, first compound 1 µM
[17] = second compound 0.316 µM, first compound 3.16 µM
[18] = second compound 0.316 µM, first compound 10 µM
[19] = second compound 1 µM, first compound 0.0316 µM
[20] = second compound 1 µM, first compound 0.1 µM
[21] = second compound 1 µM, first compound 0.316 µM
[22] = second compound 1 µM, first compound 1 µM
[23] = second compound 1 µM, first compound 3.16 µM
[24] = second compound 1 µM, first compound 10 µM
[25] = second compound 3.16 µM, first compound 0.0316 µM
[26] = second compound 3.16 µM, first compound 0.1 µM
[27] = second compound 3.16 µM, first compound 0.316 µM
[28] = second compound 3.16 µM, first compound 1 µM
[29] = second compound 3.16 µM, first compound 3.16 µM
[30] = second compound 3.16 µM, first compound 10 µM
[31] = second compound 10 µM, first compound 0.0316 µM
[32] = second compound 10 µM, first compound 0.1 µM
[33] = second compound 10 µM, first compound 0.316 µM
[34] = second compound 10 µM, first compound 1 µM
[35] = second compound 10 µM, first compound 3.16 µM
[36] = second compound 10 µM, first compound 10 µM
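Also: spheroids exposed to the agents for seven days before readout.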

`CC(C)CC(NC(=O)C(Cc1ccccc1)NC(=O)c1cnccn1)B(O)O` (stereo unspecified) + CN1CCN(c2cc(C(=O)Nc3cc4cc(-c5cnn(C)c5)ccc4cn3)ccn2)CC1 showed an IC50 (second compound 0.0316 µM) of 1.09 nM, an IC50 (second compound 0.1 µM) of under 0.949 nM and an IC50 (second compound 0.316 µM) of under 0.949 nM. It also gave an IC50 (second compound 1 µM) of under 0.949 nM, an IC50 (second compound 3.16 µM) of under 0.949 nM and an IC50 (second compound 10 µM) of under 0.949 nM. It also gave a viability, T/C (second compound 0.0316 µM, first compound 0.000949 µM) of 56.9%, a viability, T/C (second compound 0.0316 µM, first compound 0.003 µM) of 0.32% and a viability, T/C (second compound 0.0316 µM, first compound 0.00949 µM) of 0.15%. The viability, T/C (second compound 0.0316 µM, first compound 0.03 µM) was 0.1%, the viability, T/C (second compound 0.0316 µM, first compound 0.0949 µM) was 0.08% and the viability, T/C (second compound 0.0316 µM, first compound 0.3 µM) was 0.06%. For the same molecule, the viability, T/C (second compound 0.1 µM, first compound 0.000949 µM) was 8.37%, the viability, T/C (second compound 0.1 µM, first compound 0.003 µM) was 0.1% and the viability, T/C (second compound 0.1 µM, first compound 0.00949 µM) was 0.11%. For the same molecule, the viability, T/C (second compound 0.1 µM, first compound 0.03 µM) was 0.08%, the viability, T/C (second compound 0.1 µM, first compound 0.0949 µM) was 0.06% and the viability, T/C (second compound 0.1 µM, first compound 0.3 µM) was 0.06%. For the same molecule, the viability, T/C (second compound 0.316 µM, first compound 0.000949 µM) was 0.43%, the viability, T/C (second compound 0.316 µM, first compound 0.003 µM) was 0.07% and the viability, T/C (second compound 0.316 µM, first compound 0.00949 µM) was 0.09%. For the same molecule, the viability, T/C (second compound 0.316 µM, first compound 0.03 µM) was 0.04%, the viability, T/C (second compound 0.316 µM, first compound 0.0949 µM) was 0.05% and the viability, T/C (second compound 0.316 µM, first compound 0.3 µM) was 0.05%. For the same molecule, the viability, T/C (second compound 1 µM, first compound 0.000949 µM) was 0.08%, the viability, T/C (second compound 1 µM, first compound 0.003 µM) was 0.06% and the viability, T/C (second compound 1 µM, first compound 0.00949 µM) was 0.05%. For the same molecule, the viability, T/C (second compound 1 µM, first compound 0.03 µM) was 0.04%, the viability, T/C (second compound 1 µM, first compound 0.0949 µM) was 0.05% and the viability, T/C (second compound 1 µM, first compound 0.3 µM) was 0.05%. The viability, T/C (second compound 3.16 µM, first compound 0.000949 µM) was 0.07%, the viability, T/C (second compound 3.16 µM, first compound 0.003 µM) was 0.06% and the viability, T/C (second compound 3.16 µM, first compound 0.00949 µM) was 0.06%. It also gave a viability, T/C (second compound 3.16 µM, first compound 0.03 µM) of 0.04%, a viability, T/C (second compound 3.16 µM, first compound 0.0949 µM) of 0.07% and a viability, T/C (second compound 3.16 µM, first compound 0.3 µM) of 0.07%. For the same molecule, the viability, T/C (second compound 10 µM, first compound 0.000949 µM) was 0.03%, the viability, T/C (second compound 10 µM, first compound 0.003 µM) was 0.06% and the viability, T/C (second compound 10 µM, first compound 0.00949 µM) was 0.09%. It also gave a viability, T/C (second compound 10 µM, first compound 0.03 µM) of 0.09%, a viability, T/C (second compound 10 µM, first compound 0.0949 µM) of 0.15% and a viability, T/C (second compound 10 µM, first compound 0.3 µM) of 0.11%.

`CC1COCCN1c1cc(C2(S(C)(=N)=O)CC2)nc(-c2ccnc3[nH]ccc23)n1` (stereo unspecified) + CN1CCN(c2cc(C(=O)Nc3cc4cc(-c5cnn(C)c5)ccc4cn3)ccn2)CC1 showed an IC50 (second compound 0.0316 µM) of 84.3 nM, an IC50 (second compound 0.1 µM) of under 31.6 nM and an IC50 (second compound 0.316 µM) of under 31.6 nM. It also gave an IC50 (second compound 1 µM) of under 31.6 nM, an IC50 (second compound 3.16 µM) of under 31.6 nM and an IC50 (second compound 10 µM) of under 31.6 nM. It also gave a viability, T/C [1] of 57.2%, a viability, T/C [2] of 48.3% and a viability, T/C [3] of 34.6%. It also gave a viability, T/C [4] of 20.3%, a viability, T/C [5] of 6.12% and a viability, T/C [6] of 3.77%. For the same molecule, the viability, T/C [7] was 14.8%, the viability, T/C [8] was 15.1% and the viability, T/C [9] was 11.9%. The viability, T/C [10] was 8.16%, the viability, T/C [11] was 4.67% and the viability, T/C [12] was 3.28%. It also gave a viability, T/C [13] of 1.94%, a viability, T/C [14] of 2.26% and a viability, T/C [15] of 1.9%. For the same molecule, the viability, T/C [16] was 2.08%, the viability, T/C [17] was 1.38% and the viability, T/C [18] was 0.6%. It also gave a viability, T/C [19] of 0.08%, a viability, T/C [20] of 0.15% and a viability, T/C [21] of 0.11%. It also gave a viability, T/C [22] of 0.08%, a viability, T/C [23] of 0.07% and a viability, T/C [24] of 0.08%. For the same molecule, the viability, T/C [25] was 0.53%, the viability, T/C [26] was 0.17% and the viability, T/C [27] was 0.15%. The viability, T/C [28] was 0.14%, the viability, T/C [29] was 0.14% and the viability, T/C [30] was 0.1%. The viability, T/C [31] was 0.09%, the viability, T/C [32] was 0.12% and the viability, T/C [33] was 0.13%. For the same molecule, the viability, T/C [34] was 0.13%, the viability, T/C [35] was 0.15% and the viability, T/C [36] was 0.14%.

Work on `O=C(c1cc(Cc2n[nH]c(=O)c3ccccc23)ccc1F)N1CCN(C(=O)C2CC2)CC1` + CN1CCN(c2cc(C(=O)Nc3cc4cc(-c5cnn(C)c5)ccc4cn3)ccn2)CC1 yielded an IC50 (second compound 0.0316 µM) of under 31.6 nM, an IC50 (second compound 0.1 µM) of under 31.6 nM and an IC50 (second compound 0.316 µM) of under 31.6 nM. For the same molecule, the IC50 (second compound 1 µM) was under 31.6 nM, the IC50 (second compound 3.16 µM) was under 31.6 nM and the IC50 (second compound 10 µM) was under 31.6 nM. For the same molecule, the viability, T/C [1] was 49.4%, the viability, T/C [2] was 44.3% and the viability, T/C [3] was 46.2%. The viability, T/C [4] was 45.6%, the viability, T/C [5] was 36.7% and the viability, T/C [6] was 26.6%. The viability, T/C [7] was 15.5%, the viability, T/C [8] was 19.8% and the viability, T/C [9] was 18.6%. For the same molecule, the viability, T/C [10] was 20.7%, the viability, T/C [11] was 17.8% and the viability, T/C [12] was 18.6%. The viability, T/C [13] was 1.83%, the viability, T/C [14] was 1.77% and the viability, T/C [15] was 2.03%. It also gave a viability, T/C [16] of 1.63%, a viability, T/C [17] of 1.4% and a viability, T/C [18] of 1.54%. The viability, T/C [19] was 0.12%, the viability, T/C [20] was 0.1% and the viability, T/C [21] was 0.12%. The viability, T/C [22] was 0.09%, the viability, T/C [23] was 0.12% and the viability, T/C [24] was 0.09%. For the same molecule, the viability, T/C [25] was 0.2%, the viability, T/C [26] was 0.18% and the viability, T/C [27] was 0.17%. It also gave a viability, T/C [28] of 0.16%, a viability, T/C [29] of 0.23% and a viability, T/C [30] of 0.22%. For the same molecule, the viability, T/C [31] was 0.06%, the viability, T/C [32] was 0.08% and the viability, T/C [33] was 0.15%. It also gave a viability, T/C [34] of 0.09%, a viability, T/C [35] of 0.18% and a viability, T/C [36] of 0.15%.

From PubChem BioAssay AID2060599 (Molecular Pharmacology Branch, DTP, NCI, 2025)
